Article PMC9820279 (International Journal of Molecular Sciences, 2022)
Like-named read-outs stand apart in the source and are kept apart here.

Test system: HBMEC monolayer
[1] = matrix ASFE extract 24 µg/mL, 2 h incubation, n.d = not detected in lower compartment
[2] = matrix ASFE extract 24 µg/mL, 4 h incubation, n.d = not detected in lower compartment

Row | Compound | Te % (SEM) 2 h | Te % (SEM) 4 h | other results
1 | CC[C@@H](CC[C@@H](C)[C@H]1CC[C@H]2[C@@H]3CC=C4C[C@@H](O)CC[C@]4(C)[C@H]3CC[C@]12C)C(C)C [γ-Sitosterol] | 12.9 (0.6)/11.3 (0.5) % | 19.2 (1.3)/12.1 (0.6) % | 
2 | CC1(C)C[C@H](O)C[C@]2(C)OC(=O)C=C12 [Isololiolide] | 33.0 (2.6) % | 61.4 (4.3) % | 
3 | C=C[C@]1(C)CC[C@@H](C(C)(C)O)C[C@H]1C(=C)C [Elemol] | 24.6 (0.5) % | 25.4 (1.6) % | 
4 | CC1=CCC2C(C1)C2(C)C (stereo not shown) [3-Carene] |  |  | Te % (SEM) 4 h (human, 4 h, 15 µg/mL): 20.3 (0.9) %
5 | C=C1CCC[C@]2(C)CC[C@H]3C(C)(C)C[C@]132 [β-Panasinsene] | 33.4 (1.5) % | 34.8 (1.0) % | 
6 | CC1=CC[C@@H](C(C)(C)O)CC1 [L-α-Terpineol] | 17.6 (1.3) % | 59.3 (0.4) % | 
7 | C=C1CC[C@H]2O[C@]2(C)CC[C@@H]2[C@@H]1CC2(C)C [Caryophyllene oxide] | 67.7 (0.9) % |  | 
8 | O=C(/C=C/c1ccc(O)c(O)c1)O[C@H](Cc1ccc(O)c(O)c1)C(=O)O [Rosmarinic acid] |  |  | Te % (SEM) 2 h (human): 41.0 (2.3) %; Te % (SEM) 4 h (human): 90.3 (4.2) %
9 | CC1=C[C@@H]2C(=C(C)CC[C@H]2C(C)C)CC1 [δ-Cadinene] | 21.5 (0.8) % | 28.9 (2.4) % | 
10 | Tocospiro A | 2.7 (0.2) % | 25.6 (1.5) % | 
11 | CC1=CCCC2(C)CCC3C(C)(C)CC132 (stereo not drawn) [(−)-α-Panasinsen] | 19.8 (0.2) % |  | 
12 | CC1(C)CCCC2(C)OC(=O)C=C12 (stereo not shown) [Dihydroactinidiolide] |  |  | Te % (SEM) 2 h (human): 42.2 (3.5) %; Te % (SEM) 4 h (human): 51.8 (3.0) %
13 | Cc1c(C)c2c(c(C)c1O)CC[C@@](C)(CCC[C@H](C)CCC[C@H](C)CCCC(C)C)O2 [α-Tocopherol] |  |  | Te % (SEM) 2 h (human, 2 h, 15 µg/mL): 18.3 (0.8) %; Te % (SEM) 2 h (human, 2 h, 40 µg/mL): 19.8 (0.2) %; Te % (SEM) 4 h (human, 4 h, 15 µg/mL): 29.1 (1.5) %; Te % (SEM) 4 h (human, 4 h, 40 µg/mL): 39.7 (3.0) %
14 | C[C@H]1[C@H](C)CC[C@]2(CO)CC[C@]3(C)C(=CC[C@@H]4[C@@]5(C)CC[C@H](O)C(C)(C)[C@@H]5CC[C@]43C)[C@H]12 (single isomer, unassigned) [Uvaol Isomer I, Uvaol] |  |  | Te % (SEM) 2 h (human): 3.3 (0.1) %; Te % (SEM) 4 h (human): 38.8 (3.2) %
15 | CC(C)=CCC/C(C)=C/CC/C(C)=C/CC/C(C)=C/CO [Geranylgeraniol] | 30.2 (1.1) % | 56.6 (3.1) % | 
16 | CC(CC(=O)CC(C)C1CC(O)C2(C)C3=C(C(=O)CC12C)C1(C)CCC(O)C(C)(CO)C1CC3)C(=O)O (stereo not shown) [Ganolucidic acid C] |  |  | Te % (SEM) 2 h [1]: 11.7 (0.7) %; Te % (SEM) 4 h [2]: 15.6 (0.3) %
17 | Cymenol | 51.5 (1.8) % |  | 
18 | CC(C)C1CCC2(C)C3CC=C(C=O)C2C13 (stereo not shown) [Ylangenal] | 32.0 (2.7) % | 36.9 (0.4) % | 
19 | COc1cc(C(=O)O)ccc1O [Vanillic acid] |  |  | Te % (SEM) 2 h [1]: 38.9 (1.2) %; Te % (SEM) 4 h [2]: 42.2 (0.7) %
20 | Cc1c(O)cc2c(c1C)O[C@](C)(CCC[C@H](C)CCC[C@H](C)CCCC(C)C)CC2 [γ-Tocopherol] | 31.5 (0.8)/27.3 (2.1) % | 42.0 (0.8)/30.0 (1.6) % | 
21 | C[C@H]1[C@H](C)CC[C@]2(CO)CC[C@]3(C)C(=CC[C@@H]4[C@@]5(C)CC[C@H](O)C(C)(C)[C@@H]5CC[C@]43C)[C@H]12 (single isomer, unassigned) [Uvaol Isomer II, Uvaol] |  |  | Te % (SEM) 2 h (human): 17.7 (1.0) %; Te % (SEM) 4 h (human): 38.3 (0.7) %
22 | COc1ccc([C@@H]2CC(=O)c3c(O)cc(O)cc3O2)cc1O [Hesperetin] |  |  | Te % (SEM) 2 h (human, 2 h, 24 µg/mL): 65.5 (4.8) %; Te % (SEM) 4 h (human, 4 h, 24 µg/mL): 67.2 (3.6) %
23 | CC1(C)C[C@@H]2C3=CC[C@@H]4[C@@]5(C)CC[C@H](O)[C@@](C)(C=O)C5CC[C@@]4(C)[C@]3(C)CC[C@@]2(C(=O)O)C[C@@H]1O (stereo partly shown) [Lucyin A] |  |  | Te % (SEM) 2 h [1]: 7.6 (0.5) %; Te % (SEM) 4 h [2]: 25.3 (0.7) %
24 | O=c1c(O)c(-c2ccc(O)cc2)oc2cc(O)cc(O)c12 [Kaempferol] |  |  | Te % (SEM) 2 h (human, 2 h, 24 µg/mL): 31.5 (1.1) %; Te % (SEM) 4 h (human, 4 h, 24 µg/mL): 36.5 (2.2) %
